For data set [1], the system named is Porphyromonas gingivalis 381. In words: Antimicrobial screening by colorimetric WST-1 assay against P. gingivalis. Type of data set: cell-based. The conditions noted are these: P. gingivalis 381, FIG. 2, read-out: growth inhibition. The procedure:
(§1) The following bacterial strains were used in these studies: Porphyromonas gingivalis 381, Actinomyces naeslundii ATCC 49340, Streptococcus sanguinis ATCC 10556, Veillonella parvula ATCC 10790, Aggregatibacter actinomycetemcomitans JP2, and Fusobacterium nucleatum ATCC 25586. All bacterial strains were initially grown on blood agar plates (BBL, Becton Dickinson, Sparks, Md., USA) from a frozen stock and incubated in appropriate aerobic (for S. sanguinis) or anaerobic (for P. gingivalis, A. naeslundii, V. parvula, A. actinomycetemcomitans, and F. nucleatum) conditions at 37° C. for 24 h or 3 days, respectively. Then, a liquid culture was started for each strain in 3 mL of Brain Hearth infusion (BHI) broth alone or supplemented with 5 μg/mL of hemin and 1 μg/mL of menadione in the case of P. gingivalis. Overnight cultures were inoculated in fresh broth and allowed to reach logarithmic growth for 3-4 h, time at which antimicrobial activity of different treatments was evaluated.
Initial screening for testing the antimicrobial effect of zafirlukast derivatives (4a, 4b, 11a, 11b, 12a, 21a, 21b, 22a, 22b, 23a, and 23b) was performed using the colorimetric water-soluble tetrazolium-1 (WST-1) assay, which serves as a surrogate marker for cell proliferation and viability. Bacterial strains (10^6/well) grown logarithmically in broth (90 μL) using 96-wells plates, were exposed to different treatments for 2 h and then 15 μL of WST-1 reagent (Roche, Manheim, Germany) were added to each well. Plates were incubated for 2 h under appropriate culture conditions and then absorbance was measured at 450 nm, with a reference wavelength of 600 nm, using SpectraMax M2 plate reader (Molecular Devices, Sunnyvale, Calif., USA). The percentage of inhibitory effect (i.e., % growth inhibition) was calculated using the optical densities (ODs) of bacterial metabolic activity, under different experimental conditions according to the following formula: 100×[OD (control)−OD (experimental)/OD (control)]. For P. gingivalis, control cultures were treated only with medium and experimental cultures treated with DMSO (vehicle for zafirlukast and its derivatives) and 1 μg/mL of the antibiotic tetracycline. When tested against A. naeslundii, A. actinomycetemcomitans, S. sanguinis, V. parvula, and F. nucleatum control cultures were treated only with medium and experimental cultures were treated with DMSO (vehicle for zafirlukast and its derivatives), antibiotic penicillin/streptomycin −1× (100 U/mL of penicillin and 100 μg/mL of streptomycin) for Gram-positives and 1 μg/mL of tetracycline for Gram-negative anaerobic bacteria.
A general note: Tetrazolium dyes change colour on reduction, which living cells bring about.

For data set [2], the system named is OKF6 oral epithelial cells (OKF6/hTERT). In words: cells. Type of data set: cell-based. The settings on record: 24 h; for IC50: Homo sapiens, OKF6; for Dead (%) / Percentage of OKF6 cells alive / Alive (%): human. The procedure: Cytotoxic effect of zafirlukast derivatives in oral epithelial cells. The immortalized oral keratinocyte cell line OKF6/hTERT (OKF6) was used for viability assays in response to zafirlukast derivatives 22b, 23a, and 23b as previously reported. 3, ^4 Cells were cultured in keratinocyte-serum free medium (SFM) supplemented with bovine pituitary extract (25 μg/mL) and recombinant epidermal growth factor (0.2 ng/mL) (Ker-SFM). Cells were maintained at 37° C. in a humidified incubator with 5% CO2.
[…] Cells were then harvested by trypsinization, washed with DMEM medium supplemented with 5% fetal bovine serum at 1100 rpm and resuspended in fresh Ker-SFM. Equal volumes of cell suspension and trypan blue were mixed and 10 μL evaluated in the automated cell counter (Countess II FL) (Life Technologies, Singapure) to determine percentage of alive and death cells. These experiments were performed in two independent experiments by duplicate. […] The IC50 values were calculated by using the Quest Graph™ IC50 calculator (ATT Bioquest, Inc, https://www.aatbio.com/tools/ic50-calculator).

Data set [3] has the same test system. Nature of the data set: Cell viability of oral epithelial cells (apoptosis and necrosis) by flow cytometry, FITC-Annexin V / propidium iodide. In kind it is cell-based, human. The settings on record: 24 h. The protocol: Cytotoxic effect of zafirlukast derivatives in oral epithelial cells. The immortalized oral keratinocyte cell line OKF6/hTERT (OKF6) was used for viability assays in response to zafirlukast derivatives 22b, 23a, and 23b as previously reported. 3, ^4 Cells were cultured in keratinocyte-serum free medium (SFM) supplemented with bovine pituitary extract (25 μg/mL) and recombinant epidermal growth factor (0.2 ng/mL) (Ker-SFM). Cells were maintained at 37° C. in a humidified incubator with 5% CO2. Cytotoxic effects of zafirlukast derivatives were confirmed by flow cytometry analysis (FACS). After different treatments, attached OKF6 cells were harvested by trypsinization and mixed with cells that were previously rescued from supernatants. Cells were washed with PBS at 1100 rpm for 5 min and further labeled with 5 μL of FITC-Annexin V and 5 μL of propidium iodide (BD Pharmingen, San Jose, Calif.) for 15 min at room temperature. Labeled cells were analyzed by FACS, with at least 10,000 events read at wavelengths averaging 488 nm for excitation and 530 nm for emission in a flow cytometer FACSCalibur (Becton Dickinson, San Jose, Calif.).
In general terms: A flow cytometer gives signals particle by particle.

Data set [4] deals with Porphyromonas gingivalis 381. Nature of the data set: Bactericidal effect on P. gingivalis by colony forming units (CFU) assay. The conditions noted are these: 24 h exposure, 7 days incubation, FIG. 4; for bacteriostatic or bactericidal: 100 μM, CFU. In kind it is cell-based. The protocol: as §1
P. gingivalis (10^6/well) grown in appropriate medium and anaerobic conditions was exposed to zafirlukast derivatives dissolved in DMSO for 24 h and further 50 μL of bacterial culture dilutions (1:400) were spread onto blood agar plates. Numbers of CFUs were obtained after 7 days of incubation in appropriate anaerobic conditions.

The mark [5] stands for this setting: 0-100 μM in triplicate, Quest Graph IC50 calculator, read-out: IC50 (OKF6 cell viability).

Consider eleven compounds from patent US11535592B2, “Antimicrobial compounds, compositions, and method” (University of Kentucky Research Foundation, priority 2019, dated 2022).

SMILES strings stand for the structures. Where two headings read alike, the source gives them in different places. Where only a bound is given, the exact number is not on record here.

The inhibition is the relative decrease from the control value, in per cent. As for `COc1cc(C(=O)NS(=O)(=O)c2ccccc2)ccc1Cc1cn(C)c2ccccc12` [Compound 4a], in data set [1], the inhibition at 100 µM was greater than 60%.
Regarding `COc1cc(C(=O)NS(=O)(=O)c2ccccc2C)ccc1Cc1cn(C)c2ccccc12` [Compound 4b], the inhibition at 100 µM in data set [1] is greater than 60%.
Turning to `O=C(NS(=O)(=O)c1ccccc1)c1ccc(Cc2c[nH]c3ccccc23)cc1` [Compound 11a], in data set [1], the inhibition at 10 µM is roughly 40%.
With `Cc1ccccc1S(=O)(=O)NC(=O)c1ccc(Cc2c[nH]c3ccccc23)cc1` [Compound 11b], the inhibition at 10 µM in data set [1] is roughly 90%.
On the same count and under the same terms, the same measure for `Cn1cc(Cc2ccc(C(=O)NS(=O)(=O)c3ccccc3)cc2)c2ccccc21` [Compound 12a]: 90 to 100%; for `COc1ccc(Cc2c[nH]c3ccccc23)cc1C(=O)NS(=O)(=O)c1ccccc1` [Compound 21a]: roughly 40%.
The same measure, in the same setting: under `COc1ccc(Cc2c[nH]c3ccccc23)cc1C(=O)NS(=O)(=O)c1ccccc1C` [Compound 21b] stands roughly 80%.
Usually IC50 stands for the concentration needed to halve the response being measured. Regarding `COc1ccc(Cc2cn(C)c3ccccc23)cc1C(=O)NS(=O)(=O)c1ccccc1C` [Compound 22b], in data set [2] (setting [5]), the concentration for half-maximal inhibition (IC50) is 16 µM. Also, the entries for the “Dead (%)” value in data set [2] (1 μM) and in data set [2] (10 μM) were 8.5 ± 1.7% and 59.3 ± 16.6%, respectively. Moreover, the “Percentage of OKF6 cells alive” value stood at 69.3 ± 9.6% in data set [2] (1 μM); 41.0 ± 1.0% in data set [2] (2.5 μM); 66.0 ± 5.6% in data set [2] (5 μM); 38.3 ± 4.9% in data set [2] (10 μM); 41.0 ± 17.3% in data set [2] (15 μM); 22.7 ± 11.7% in data set [2] (20 μM). Moreover, the results for the “Percentage of OKF6 cells alive” value in data set [2] (25 μM), in data set [2] (50 μM) and in data set [2] (100 μM) were 47.0 ± 20.0%, 33.0 ± 15.1% and 12.3 ± 11.0%, respectively. Moreover, the “Alive (%)” value in data set [2] (10 μM) was 40.8 ± 16.6%. For the same compound, the “Apoptosis (%)” value in data set [3] (human, 1 μM) turned out to be 23.7 ± 16.6%; in data set [3] (human, 10 μM) it was 29.6 ± 19.1%. Moreover, the “Necrosis (%)” value in data set [3] (human, 1 μM) came to 2.16 ± 1.62%; in data set [3] (human, 10 μM), 1.37 ± 0.39%. In addition, the Viable in data set [3] (human, 1 μM) is 74.1 ± 18.1%; in data set [3] (human, 10 μM), 69.1 ± 18.9%. Moreover, the inhibition at 1 µM in data set [1] was in the range of 15 to 40%. Further, the inhibition at 10 µM in data set [1] was in the range of 90 to 100%.
As for `COc1ccc(Cc2cn(C)c3ccc([N+](=O)[O-])cc23)cc1C(=O)NS(=O)(=O)c1ccccc1` [Compound 23a], in data set [2] (setting [5]), the concentration for half-maximal inhibition (IC50) was 54 µM. The “Dead (%)” value in data set [2] (1 μM) was 20.5 ± 16.4%; in data set [2] (10 μM), 26.3 ± 4.1%. Besides, the “Percentage of OKF6 cells alive” value in data set [2] (1 μM) worked out at 68.0 ± 5.0%; in data set [2] (2.5 μM), 70.7 ± 10.3%; in data set [2] (5 μM), 55.3 ± 8.1%; in data set [2] (10 μM), 49.0 ± 16.1%; in data set [2] (15 μM), 50.3 ± 9.5%; in data set [2] (20 μM), 48.0 ± 6.1%. The “Percentage of OKF6 cells alive” value in data set [2] (25 μM) turned out to be 54.0 ± 7.8%; in data set [2] (50 μM), 45.3 ± 13.1%; in data set [2] (100 μM), 15.7 ± 7.1%. Further, in data set [2] (10 μM), the “Alive (%)” value is on record as 73.8 ± 4.1%. For the same compound, in data set [4], the bacteriostatic or bactericidal result is given as “bactericidal”. Besides, the inhibition at 1 µM in data set [4] (Porphyromonas gingivalis, 381, 1 μM, read-out: growth inhibition (CFU)) was roughly 60%; in data set [1], 15 to 40%. Further, the inhibition at 10 µM was 100% in data set [4] (Porphyromonas gingivalis, 381, 10 μM, read-out: growth inhibition (CFU)) and 90 to 100% in data set [1]. Besides, the “Apoptosis (%)” value in data set [3] (human, 1 μM) came to 38.5 ± 27.5%; in data set [3] (human, 10 μM), 44.2 ± 26.9%. For the same compound, the “Necrosis (%)” value in data set [3] (human, 1 μM) amounted to 0.69 ± 0.46%; in data set [3] (human, 10 μM) it was 2.81 ± 2.31%. The Viable in data set [3] (human, 1 μM) came to 60.9 ± 27.4%; in data set [3] (human, 10 μM), 53.2 ± 29.0%.
As for `COc1ccc(Cc2cn(C)c3ccc([N+](=O)[O-])cc23)cc1C(=O)NS(=O)(=O)c1ccccc1C` [Compound 23b], the 50% inhibitory concentration (IC50) in data set [2] (setting [5]) is greater than 100 µM; in data set [2] (estimated beyond the highest concentration tested (100 μM), read-out: IC50 (OKF6 cell viability), estimated), roughly 230 µM. Also, the “Dead (%)” value in data set [2] (1 μM) was 17.3 ± 9.5%; in data set [2] (10 μM) it was 51.8 ± 17.5%. Besides, the “Percentage of OKF6 cells alive” value in data set [2] (1 μM) is reported as 83.7 ± 9.1%; in data set [2] (2.5 μM) it was 87.7 ± 3.8%; in data set [2] (5 μM), 87.0 ± 2.6%; in data set [2] (10 μM), 83.0 ± 5.3%; in data set [2] (15 μM) it was 79.0 ± 5.3%; in data set [2] (20 μM), 75.3 ± 3.8%. Moreover, the “Percentage of OKF6 cells alive” value came to 77.0 ± 2.6% in data set [2] (25 μM), 69.0 ± 7.5% in data set [2] (50 μM) and 58.7 ± 4.2% in data set [2] (100 μM). Moreover, the “Alive (%)” value in data set [2] (10 μM) was 48.3 ± 17.5%. Besides, the bacteriostatic or bactericidal entry in data set [4] is on record as “bactericidal”. In addition, the “Apoptosis (%)” value in data set [3] (human, 1 μM) was 24.8 ± 13.9%; in data set [3] (human, 10 μM) it was 35.8 ± 21.3%. Moreover, the “Necrosis (%)” value is 1.08 ± 0.17% in data set [3] (human, 1 μM) and 2.23 ± 1.18% in data set [3] (human, 10 μM). The Viable in data set [3] (human, 1 μM) amounted to 74.4 ± 13.8%; in data set [3] (human, 10 μM) it was 61.7 ± 22.2%. Besides, the inhibition at 1 µM in data set [1] lay within 15 to 40%. Also, the inhibition at 10 µM in data set [1] lay within 90 to 100%.
Regarding `COc1cc(C(=O)NS(=O)(=O)c2ccccc2C)ccc1Cc1cn(C)c2ccc(NC(=O)OC3CCCC3)cc12` [Zafirlukast, zafirlukast, reference compound], in data set [2] (25 μM), the “Alive (%)” value was found to be 17.3 ± 5.2% and the “Dead (%)” value was 82.8 ± 5.2%. For the same compound, in data set [3] (25 μM, FACS (Table 3, FIG. 7)), the “Apoptosis (%)” value was 90.8 ± 2.5%, the “Necrosis (%)” value came to 0.65 ± 0.58% and the Viable turned out to be 8.53 ± 3.08%.
